From patent US20040096423A1, “Use of a triple combination comprising a 5ht3 antagonist, a 5ht4agonist and a laxative for promoting intestinal lavage” (priority 2000, published 2004)

Assays:
[1] = target: T1, 5HT4 receptor (Cavia porcellus, UniProt O70528); test: Electrically stimulated guinea-pig ileum longitudinal muscle-myenteric plexus strips (titled in vitro binding affinity for the 5HT4 receptor); assay type: cell-based; settings: submaximal electrical stimulation
T1 construct: The longitudinal muscle layer with myenteric plexus was removed; from tissue; host or cells: guinea-pig ileum longitudinal muscle with myenteric plexus
Description: Dunkin-Hartley guinea-pigs of either sex (weighing between 600-900 g) were killed by decapitation. The ileum was removed and cleansed with warmed and oxygenated Krebs-Henseleit solution. Parts of the ileum (15 cm) were slipped over a glass pipette. The longitudinal muscle layer with myenteric plexus was removed by means of a cotton thread moistened with Krebs solution. Strips with a length of 8 cm were folded and these strips (4 cm) were mounted between two platinum electrodes (8 cm length, 0.5 cm apart). […] The preparations were excited with single rectangular stimuli [1 ms; 0.1 Hz; submaximal response (current leading to 80% of maximal response), from a programmable stimulator (Janssen Scientific Instruments Division)]. Contractions were measured isometrically (Statham UC2, Janssen Scientific Instruments amplifier, Kipp BD-9 pen-recorder). During the stabilization period of 30 minutes, the strips were repeatedly stretched, in order to obtain a steady state tension of 1.5 g. Before starting the electrical stimulation, a cumulative concentration response curve of acetylcholine (3.10^−9, 10^−8, 3.10^−8 and 10^−7 M) was given. The bath fluid was replaced with fresh Krebs solution and the strips were allowed to stabilize for another 30 minutes. Subsequently, the strips were stimulated electrically (power stimulator) at a frequency of 0.1 Hz for 1 ms. […]

[2] = system: dogs; test: Measurement of onset of liquid stool in dogs challenged with KleanPrep; assay type: in vivo, dog; settings: for ED50: Canis lupus familiaris, read-out: ED50 for liquid stools within 6 hours after administration of KleanPrep
Method: Measurement of Onset of Liquid Stool
The dogs were orally or subcutaneously pretreated with test compounds or distilled water (0.5 ml/kg) and 1 hour later challenged by gavage with KleanPrep™ (standard volume: 2×200 ml at a 15 minutes interval). The time interval at which the first liquid stool occurred was noted (in minutes after the first administration of KleanPrep™) up to 6 hours after challenge.
The KleanPrep™ preparation consisted of polyethyleneglycol 3350 (59.000 g/l), sodium sulphate (5.685 g/l), sodium hydrogencarbonate (1.685 g/l), sodium chloride (1.465 g/l), potassium chloride (0.7425 g/l), aspartate (0.0494 g/l) and vanilla (0.3291 g/l).
In a pilot study on five dogs, large volumes of KleanPrep™ (1400, 1400, 1800, 2800, 2800 ml) and relatively long time intervals (95, 101, 124, 211 and 305 minutes after KleanPrep™) were required to obtain liquid stools within an observation period of 6 hours. In the present experiments, a standard volume of 400 ml KleanPrep™ solution (2×200 ml at a 15 minutes interval) was used. Under these conditions, liquid stools were not observed up to 6 hours after KleanPrep™, neither in 40 control dogs pretreated with a single dose of distilled water (0.5 ml/kg, p.o., −1 hour), nor in 35 control dogs pretreated with two doses of distilled water (0.5 ml/kg, p.o., −1 hour) immediately after each other, nor in 10 dogs pretreated with a dose of distilled water (0.5 ml/kg, p.o., −1 hour) and a dose of saline (0.5 ml/kg, s.c., −1 hour), nor in 5 dogs treated with two doses of distilled water (0.5 ml/kg, p.o., −1 hour) and a dose of saline (0.5 ml/kg, s.c., −1 hour).

[3] = dogs pretreated with Compound A 0.01 mg/kg, 5HT4 agonist co-administered, + KleanPrep
[4] = dogs pretreated with Compound A 0.01 mg/kg, 5HT4 agonist co-administered, + KleanPrep, shortest median reached (down to)
[5] = dogs, 5HT4 agonist alone 1 h before KleanPrep 2×200 ml
[6] = of 35 dogs, Compound A 0.01 mg/kg p.o. + distilled water, 1 h before KleanPrep

T1 sequence (O70528 whole entry): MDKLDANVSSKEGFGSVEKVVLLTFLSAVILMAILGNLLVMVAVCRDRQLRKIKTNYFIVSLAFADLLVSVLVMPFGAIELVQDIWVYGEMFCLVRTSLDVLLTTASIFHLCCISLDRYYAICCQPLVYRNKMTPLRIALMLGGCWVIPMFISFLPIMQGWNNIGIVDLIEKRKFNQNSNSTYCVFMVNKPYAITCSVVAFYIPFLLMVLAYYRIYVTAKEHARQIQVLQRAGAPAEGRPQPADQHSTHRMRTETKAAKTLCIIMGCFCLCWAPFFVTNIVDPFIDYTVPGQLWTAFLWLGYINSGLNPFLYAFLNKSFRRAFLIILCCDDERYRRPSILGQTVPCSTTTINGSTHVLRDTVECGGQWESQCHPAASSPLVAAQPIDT

Structure (SMILES): COCCCN1CC[C@@H](CNC(=O)c2cc(Cl)c(N)c3c2OC(C)(C)C3)[C@H](O)C1 [Compound B, (3S-trans)-4-amino-5-chloro-2,3-dihydro-N-[[3-hydroxy-1-(3-methoxypropyl)-4-piperidinyl]methyl]-2,2-dimethyl-7-benzofuran-carboxamide]
- EC50 [1]: 1.6 nM
- ED50 for liquid stools within 1 hour [2, 3]: 0.0014 mg/kg
- median onset of the first liquid stool after administration of KleanPrep [2, 4]: 29 min
- dose up to which liquid stools were not induced over the 6 hour observation period [2, 5]: > 2.5 mg/kg

Structure (SMILES): CO[C@@H]1CN(CCCNc2nccc(=O)[nH]2)CC[C@@H]1NC(=O)c1cc(Cl)c(N)c2c1OC(C)(C)C2 (relative stereo) [Compound A, (−)-cis-4-amino-5-chloro-2,3-dihydro-N-[1-[3-[(3,4-dihydro-4-oxo-2-pyrimidinyl)-amino]propyl]-3-methoxy-4-piperidinyl]-2,2-dimethyl-7-benzofurancarboxamide]
- median onset of the first liquid stool after administration of KleanPrep ([2]; dogs, Compound A 0.01 mg/kg p.o. + KleanPrep, no 5HT4 agonist (control)): 125 min
- number of dogs displaying liquid stools within 1 hour [2, 6]: two
- number of dogs displaying liquid stools within 6 hours [2, 6]: Thirty-three

Structure (SMILES): COCCCN1CCC(NC(=O)c2cc(Cl)c(N)c3c2OCC3)CC1 [prucalopride]
- ED50 [2, 5]: 2.3 mg/kg
- ED50 for liquid stools within 1 hour [2, 3]: 0.22 mg/kg
- median onset of the first liquid stool after administration of KleanPrep [2, 4]: 32 min
- dose up to which liquid stools within 1 hour were not obtained [2, 5]: > 5 mg/kg

Structure (SMILES): COc1cc(N)c(Cl)cc1C(=O)NC1CCN(CCCOc2ccc(F)cc2)CC1OC (centres unmarked) [cisapride]
- ED50 [2, 5]: 0.89 mg/kg
- ED50 for liquid stools within 1 hour [2, 3]: 0.056 mg/kg
- median onset of the first liquid stool after administration of KleanPrep [2, 4]: 24 min
